Measured values as given in paper PMC7699745, “The Search for New Anticonvulsants in a Group of (2,5-Dioxopyrrolidin-1-yl)(phenyl)Acetamides with Hybrid Structure—Synthesis and In Vivo/In Vitro Studies” (International Journal of Molecular Sciences, 2020).
“And” between values parts separate entries of the source, which are not always exact repeats. Equal entries are not always repeated. Where two headings read alike, the source gives them in different places.

Legend:
hepatoma HepG2 cells = assay: Hepatotoxicity, MTS cell viability assay; assay type: cell-based; conditions: 100 µM, 72 h
Procedure: The hepatotoxicity assessment was done with use of hepatoma HepG2 cells, which were incubated for 72 h in the presence of 1–100 µM concentrations of 4, 24, and 30. The CellTiter 96® aqueous nonradioactive cell proliferation assay (MTS) purchased from Promega (Madison, WI, USA) was used for determination of cell viability. The absorbance was measured using a microplate reader EnSpire (PerkinElmer, Waltham, MA, USA) at 492 nm. The obtained results confirmed the safety of the investigated series.
These studies were performed on hepatoma HepG2 cells, according to a protocol reported previously

[1] = Metabolic stability in human liver microsomes; assay type: in vitro ADME; conditions: 120 min incubation with HLMs
Source text: Human liver microsomes (HLMs) were used for metabolic stability determination. Moreover, the most probable phase I reactions and structures of metabolites were proposed according to ion fragment analyses with the in silico support of MetaSite 6.0.1 software. […] On the other hand, an excellent metabolic stability of compound 24 was observed. Less than 4% of this derivative was converted into double-hydroxylated metabolite M1 (Figures S3, S4, and S7, Supplementary Materials). Finally, two monohydroxylated metabolites (M1, M2) were found in the reaction mixture with HLMs and 30, and around 17% of this compound was metabolized (Figures S5–S7, Supplementary Materials).
These assays were performed on human liver microsomes (HLMs), purchased from Sigma-Aldrich (St. Louis, MO, USA), according to [14].

[2] = system: formalin-induced nociceptive response, mice; assay: Formalin test of tonic pain; assay type: in vivo; conditions: for ED50: Mus musculus, ip, i.p. 30 min before test
Procedure: AEDs are also commonly used in the treatment of neuropathic pain and other central pain conditions. Therefore, with an aim of further pharmacological characterization of compounds described herein, we decided to study their antinociceptive properties in the in vivo assays. […] At first, both aforementioned compounds were tested in the formalin-induced tonic pain model, which is recognized as a valuable screening tool. In this test, the injection of formalin into the plantar surface of the mouse paw produces specific behaviors like paw lifting, flinching, and licking. […] Moreover, it has been reported that formalin induces pathological changes that resemble those observed in nerve injury and neuropathic pain [24]. Thus, this test has been successfully used to assess the analgesic efficacy of a variety of compounds such as opioids, nonsteroidal anti-inflammatory drugs (NSAIDs), corticosteroids, and N-methyl-D-aspartate (NMDA) receptor antagonists, as well as AEDs such as carbamazepine, topiramate, or gabapentin [26, 27].
As mentioned above, we investigated the analgesic properties of two of the most promising and interesting compounds: 4 and 30.
The experimental groups consisted of 6–12 adult male Albino Swiss mice (CD-1, 18–25 g). Each animal was tested only once. Immediately after the assay, the animals were sacrificed by cervical dislocation. Behavioral measurements were observed by trained observers. The in vivo antinociceptive assays were in accordance with Polish regulations and European Union Directive of 22 September 2010 (2010/63/EU). All procedures were carried out according to the rules of the International Council on Laboratory Animal Science (ICLAS) and were approved by the Local Ethical Committee in Cracow, Poland (approval No 104/2015, 111/2016, and 179/2017). The tested substances were suspended in 1% aqueous solution of Tween-80 and were injected i.p. 30 min prior to the test. Control group animals (negative control) were administered with an appropriate amount of vehicle (Tween-80, 1% aqueous solution, i.p.) 30 min prior to the test.
The experimental in vivo procedures were previously reported for the formalin test; compounds 4 and 30 were tested in three doses—40, 80, 120 mg/kg (4), and 20, 40, 80 mg/kg (30). […] The in vivo procedure for the model of capsaicin-induced nociception was previously reported; the animals were pretreated with vehicle (10 mL/kg, negative control) and the dose–response of investigated compounds was evaluated at 40, 80, 120 mg/kg (4), and 20, 40, 80 mg/kg (30). […]
Data are presented as means ± standard error of the mean (SEM). […] Statistically significant differences between groups were calculated using one-way analysis of variance (ANOVA) and the post hoc Dunnett’s multiple comparison test or two-way analysis of variance (ANOVA). […]

[3] = biological target: T1, GABA-A receptor (α1,β2,γ2) (Homo sapiens, UniProt P14867+P47870); assay: Radioligand binding, GABA-A receptor; parameters: dose or concentration left out as unconfirmed; conditions: rat cerebral cortex; read-out: % Inhibition of Control Specific Binding, GABA-A Receptor (α1,β2,γ2) (Agonist Radioligand)
T1 construct: Eurofins (Poitiers, France), contract assay
Procedure: Taking into consideration the structural similarities of molecules described in the current manuscript with their chemical prototypes AS-1 and DK-1, the binding studies toward aforementioned molecular targets were performed commercially for several active substances from each subseries (3, 4, 21, 24, 25, 27, 29, and 30). Furthermore, we also tested two other and well-known targets for AEDs, namely, the Cav2.2 (N-type) calcium channel and gamma-aminobutyric acid (GABA)-A receptor. With the aim of excluding potentially dangerous proarrhythmic properties for each compound, their interaction with the potassium (hERG) channel was also tested.
Binding studies were carried out commercially in Eurofines Laboratories (Poitiers, France). The functional assays were performed in Eurofins Panlabs Discovery Services Taiwan, Ltd. (New Taipei City, Taiwan). All procedures are described elsewhere (for details, see Table S4 in Supplementary Materials).
Binding studies were carried out commercially in Eurofines Laboratories (Poitiers, France). The
functional assays were performed in Eurofins Panlabs Discovery Services Taiwan, Ltd. (New Taipei
City, Taiwan). All procedures are described elsewhere (Table S4).
Table S4. In vitro binding and functional assays.
GABA-A receptor (α1,β2,γ2)
Potassium channel (hERG) 14
Cav1.2 (h) calcium ion channel cell based antagonist calcium flux assay 16,17

[4] = phase II 15–30 min, read-out: ED50, formalin test phase II

T1 sequence (P14867 28-456): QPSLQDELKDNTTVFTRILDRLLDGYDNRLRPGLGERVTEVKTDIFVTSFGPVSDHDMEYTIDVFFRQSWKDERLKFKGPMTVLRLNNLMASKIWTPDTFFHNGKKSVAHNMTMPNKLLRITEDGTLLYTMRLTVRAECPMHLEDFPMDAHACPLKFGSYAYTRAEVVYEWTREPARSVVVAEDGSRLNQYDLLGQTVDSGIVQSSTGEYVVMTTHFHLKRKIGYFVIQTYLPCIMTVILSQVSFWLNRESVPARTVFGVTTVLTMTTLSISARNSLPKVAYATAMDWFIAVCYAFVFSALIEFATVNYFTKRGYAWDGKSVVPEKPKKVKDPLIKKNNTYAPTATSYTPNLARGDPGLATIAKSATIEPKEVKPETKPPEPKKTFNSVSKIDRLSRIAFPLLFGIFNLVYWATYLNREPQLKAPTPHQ
T1 sequence (P47870 25-512 limits assumed): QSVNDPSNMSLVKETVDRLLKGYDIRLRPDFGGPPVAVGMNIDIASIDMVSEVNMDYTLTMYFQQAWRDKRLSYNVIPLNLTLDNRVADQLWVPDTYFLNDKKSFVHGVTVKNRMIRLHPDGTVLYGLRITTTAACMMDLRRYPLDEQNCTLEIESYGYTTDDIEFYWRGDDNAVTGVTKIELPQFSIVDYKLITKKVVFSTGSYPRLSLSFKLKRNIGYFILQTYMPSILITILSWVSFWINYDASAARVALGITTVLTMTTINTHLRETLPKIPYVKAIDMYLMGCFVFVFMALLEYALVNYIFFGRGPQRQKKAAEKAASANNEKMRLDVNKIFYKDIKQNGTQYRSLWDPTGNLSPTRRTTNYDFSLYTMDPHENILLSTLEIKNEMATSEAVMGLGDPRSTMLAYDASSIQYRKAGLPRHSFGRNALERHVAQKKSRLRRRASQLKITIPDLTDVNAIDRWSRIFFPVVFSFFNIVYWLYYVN
T1 sequence (P18507 40-475 partner): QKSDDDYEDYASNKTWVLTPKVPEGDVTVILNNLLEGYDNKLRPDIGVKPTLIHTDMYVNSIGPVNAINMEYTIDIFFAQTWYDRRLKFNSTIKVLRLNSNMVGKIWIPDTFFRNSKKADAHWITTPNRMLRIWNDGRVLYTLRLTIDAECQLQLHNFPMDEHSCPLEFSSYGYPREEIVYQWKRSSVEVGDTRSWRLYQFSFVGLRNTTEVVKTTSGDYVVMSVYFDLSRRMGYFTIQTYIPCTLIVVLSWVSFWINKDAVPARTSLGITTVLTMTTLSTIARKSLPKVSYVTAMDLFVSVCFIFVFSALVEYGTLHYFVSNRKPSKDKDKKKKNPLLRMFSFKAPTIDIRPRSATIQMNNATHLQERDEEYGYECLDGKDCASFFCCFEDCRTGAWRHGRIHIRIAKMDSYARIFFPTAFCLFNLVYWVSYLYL

SMILES | effect on HepG2 cells viability (hepatoma HepG2 cells) | compound converted into metabolites / metabolized [1] | parent compound remained in the reaction mixture [1] | ED50 ([2]; phase I 0–5 min, read-out: ED50, formalin test phase I) [mg/kg] | ED50 [2, 4] [mg/kg] | inhibition [3] [%] | attenuation of nociceptive response, formalin test first phase ([2]; i.p., doses 40, 80, 120 mg/kg)
O=C(NCCc1cccc(OC(F)(F)F)c1)C(c1ccccc1)N1C(=O)CCC1=O (stereo not shown) [Compound 30, 2-(2,5-Dioxopyrrolidin-1-yl)-2-phenyl-N-(3-(trifluoromethoxy)phenethyl)acetamide] | statistically significant (p < 0.001) effect on cells viability | around 17% | 83.39% | 21.5 | 24.8 | 0.3 | –
O=C(Nc1ccccc1F)C(c1ccccc1)N1C(=O)CCC1=O (stereo not shown) [Compound 4, 2-(2,5-Dioxopyrrolidin-1-yl)-N-(2-fluorophenyl)-2-phenylacetamide] | – | – | 71.44% and 71.4% | – | 98.9 | 2.8 | statistically significant only at the highest dose of 120 mg/kg
